Laboratory results as given in ChEMBL document CHEMBL3430912, “GSK Tres Cantos Anti-Kinetoplastid Screening (TCAKS) Data”.

What was measured:
Trypanosoma cruzi [1] = assay: GSK_TCAKS: pIC50 Trypanosoma cruzi viability assay using beta-GAL activity. This assay was run at single shot at 5uM compound concentration per well. The biological reagents consisted of NIH-3T3 host cells and trypomastigotes parasitic cells; both cell types were set to a 3.3 * 10^5 cells/mL dilution in assay DMEM by means of a CASY cell counter device using a 60um capillary. 6 uL of the mixture were dispensed per well (about 1 * 10^3 host-cells and 1 * 10^3 parasites) with a Multidrop Combi dispenser. […] In all wells, the percentage of DMSO never exceeded 0.5%. Plates incubated for four days at 37C, 5% CO2. The substrate used for the assay fluorescence intensity (FLINT) readout was resorufin-beta-D-galactopiranoside (Sigma-Aldrich) at 5uM per well. It was diluted in PBS supplemented with the soft detergent Igepal (Fluka).; format: functional, organism-based, Mus musculus; details: Tulahuen, NIH3T3
Trypanosoma cruzi [2] = assay: (§1) GSK_TCAKS: pIC50 Trypanosoma cruzi Imaging: Infected Cells. […] Cells were then washed once with PBS before infection. T. cruzi trypomastigotes, collected at days 5 to 8 after infection from LLC-MK2 parasite infected cultures, were allowed to swim out for 4h at 37C from a centrifuged pellet (2,500 rpm/10 min/room temperature). Trypomastigotes were then collected and counted in a CASY Cell Counter. Trypomastigotes, in supplemented DMEM, were added to H9c2 cultures in a multiplicity of infection of 1 and incubated for 18 h. Cells were washed once with PBS before incubation of the infected H9c2 monolayer with trypsin (Life-Technologies) to detach cells from the flask. Cells were counted in a CASY Cell Counter using a 150 um capillary and their density set at 5 * 10^4 cells per mL in supplemented assay DMEM. Infected H9c2 were dispensed into 384-well poly-lysine coated assay plates at 50uL per well using a Multidrop Combi dispenser. After seeding them, the plates were incubated at 37C, 5% CO2 for 72h. Cultures were then fixed and stained by addition of 50 uL of a solution containing 8% formaldehyde and 4 uM DRAQ5 DNA dye (BioStatus, UK) per well. […] Five images were collected per well for reliable statistical analysis. Automated image analysis was performed with a script developed on Acapella High Content Imaging and Analysis Software (PerkinElmer). Output: percentage of infected cells per well as a second infection marker.; format: functional, organism-based, Rattus norvegicus; details: H9c2, 4 h
Trypanosoma cruzi [3] = assay: GSK_TCAKS: pIC50 Trypanosoma cruzi Imaging: Amastigotes/Cell. […] Cells were then washed once with PBS before infection. T. cruzi trypomastigotes, collected at days 5 to 8 after infection from LLC-MK2 parasite infected cultures, were allowed to swim out for 4h at 37C from a centrifuged pellet (2,500 rpm/10 min/room temperature). Trypomastigotes were then collected and counted in a CASY Cell Counter. Trypomastigotes, in supplemented DMEM, were added to H9c2 cultures in a multiplicity of infection of 1 and incubated for 18 h. Cells were washed once with PBS before incubation of the infected H9c2 monolayer with trypsin (Life-Technologies) to detach cells from the flask. Cells were counted in a CASY Cell Counter using a 150 um capillary and their density set at 5 * 10^4 cells per mL in supplemented assay DMEM. Infected H9c2 were dispensed into 384-well poly-lysine coated assay plates at 50uL per well using a Multidrop Combi dispenser. After seeding them, the plates were incubated at 37C, 5% CO2 for 72h. Cultures were then fixed and stained by addition of 50 uL of a solution containing 8% formaldehyde and 4 uM DRAQ5 DNA dye (BioStatus, UK) per well. […] Five images were collected per well for reliable statistical analysis. Automated image analysis was performed with a script developed on Acapella High Content Imaging and Analysis Software (PerkinElmer). Output: number of amastigotes per cell as infection level measurement.; format: functional, organism-based, Rattus norvegicus; details: H9c2, 4 h
Trypanosoma cruzi [4] = assay: as §1, with “H2C9” for “Trypanosoma cruzi”, “H9c2 Host Cardiomyocytes.” for “Infected Cells.”, “Number” for “percentage”, “H9c2 Host Cardiomyocytes nuclei to determine drug-related cytotoxicity.” for “infected cells per well as a second infection marker.”; format: functional, organism-based, Rattus norvegicus; details: H9c2, 4 h
Leishmania donovani [5] = assay: GSK_TCAKS: pIC50 Leishmania donovani viability assay using fluorescence intensity. Assay plates (1536-well) were prepared by adding 30nL per well of compound. For single shot assay, the final compound concentration was 5uM. […] Briefly, eGFP LdBOB axenic amastigotes were harvested, fixed and counted in a CASY cell counter (Roche-Applied Science). A final concentration of 1.5 * 10^5 cells per well were prepared in amastigote media containing 500 U/mL penicillin/streptomycin (Invitrogen) and 6uL was dispensed to each experimental well using a Multidrop Combi dispenser (Thermo Scientific). 6uL of assay media was dispensed to control columns used as reference for 100% compound response. Following incubation for 72 h at 37C, 5% CO2, 2 uL of resazurin was added to each well at a final concentration of 0.5 mM in phosphate buffered saline (PBS) with IGEPAL (Sigma-Aldrich), 0.05% (v/v).; format: functional, organism-based
Leishmania donovani [6] = assay: GSK_TCAKS: pIC50 Leishmania donovani Imaging: Infected Macrophages. Assay plates (384-well) were prepared by adding 250nL of compound to each well. For single shot assay, the final compound concentration was 5 uM. […] Automated image analysis was performed with a script developed on Acapella High Content Imaging and Analysis Software (PerkinElmer). Output: Percent of infected macrophage cells were reported for each well.; format: functional, organism-based, Homo sapiens; details: THP-1
Leishmania donovani [7] = assay: GSK_TCAKS: pIC50 Leishmania donovani Imaging: Amastigotes/Macrophages. Assay plates (384-well) were prepared by adding 250nL of compound to each well. For single shot assay, the final compound concentration was 5 uM. […] Automated image analysis was performed with a script developed on Acapella High Content Imaging and Analysis Software (PerkinElmer). Output: Average number of amastigotes per macrophage cell were reported for each well.; format: functional, organism-based, Homo sapiens; details: THP-1
Leishmania donovani [8] = assay: GSK_TCAKS: pIC50 Leishmania donovani Imaging: THP-1 Host Macrophages. Assay plates (384-well) were prepared by adding 250nL of compound to each well. For single shot assay, the final compound concentration was 5 uM. […] Automated image analysis was performed with a script developed on Acapella High Content Imaging and Analysis Software (PerkinElmer). Output: THP-1 cell count were reported for each well.; format: functional, organism-based, Homo sapiens
[9] = test system: Trypanosoma brucei brucei; assay: GSK_TCAKS: pIC50 Trypanosoma brucei viability assay using fluorescence intensity. Assay plates (1536-well) were prepared by dispensing 25nL of compound solution per well using an Echo acoustic dispenser (Labcyte).; format: functional, organism-based; details: Lister 427, 2 h
[10] = test system: Trypanosoma brucei brucei; assay: GSK_TCAKS: pIC50 Trypanosoma brucei viability assay using luminiscence. Assay plates (1536-well) were prepared. T. brucei cultures were harvested and counted in a CASY cell counter. A parasite suspension was prepared at a final concentration of 5 * 10^4 cells/mL in complete HMI9 medium and 6uL was dispensed to all wells containing compounds using a Multidrop Combi dispenser. 6uL of HMI9 media with 0.4% DMSO were dispensed to control columns. Plates were incubated for 24 h at 37C, 5% CO2 then tempered for 10 min at room temperature. ATP content was quantified by adding 4 uL of CellTiter-Glo Reagent (Promega) according to the manufacturer's instructions. Luminescence was measured using a ViewLux.; format: functional, organism-based; details: Lister 427, CASY
[11] = GSK_TCAKS: pIC50 HepG2 human cell line viability assay using luminiscence. […] Seeding density was checked to ensure that new mono-layers were not more than 50% confluent at the time of harvesting. Cell suspension was added to 500 mL of the same medium at a final density of 1.2 * 10^5 cells/mL. This cell suspension was dispensed (25 uL, 3000 cells per well) into 384-well clear-bottom plates using a Multidrop Combi dispenser. Prior to addition of the cell suspension, the screening compounds (250 nL) were pre-dispensed into the plates with an Echo liquid handler. Plates were incubated for 48 h at 37C, 5% CO2. After incubation, plates equilibrated at room temperature for 30 min before proceeding to develop the luminescent signal. The signal developer, CellTiter-Glo Reagent, was allowed to equilibrate at room temperature for 30 min and added to the plates (25uL per well) using a Multidrop Combi dispenser. Plates were left for 10 min at room temperature for stabilization and then read using a ViewLux.; format: toxicity, cell-based
NIH3T3 = assay: GSK_TCAKS: pIC50 NIH 3T3 cell line viability assay using luminiscence. Tissue culture surface treated assay plates (1536-well) were used. […] The 100% cells survival control was determined exposing the host-cells to a 0.5% DMSO concentration, whereas the 100% toxicity control was achieved by seeding the cells in presence of Amphotericin B at 50uM. Plates were incubated for four days at 37C, 5% CO2. The assay readout was developed by addition of 5uL of CellTiter-Glo Reagent following the manufacturer's instructions. Luminiscence was measured using a ViewLux.; format: functional, cell-based; details: Mus musculus, NIH3T3, 96 h
[12] = target: Sterol 14-alpha demethylase (Trypanosoma cruzi (strain CL Brener), UniProt Q7Z1V1); assay: GSK_TCAKS: pIC50 CYP51 from Trypanosoma cruzi.; format: functional
Chain of Sterol 14-alpha demethylase (Q7Z1V1 whole entry): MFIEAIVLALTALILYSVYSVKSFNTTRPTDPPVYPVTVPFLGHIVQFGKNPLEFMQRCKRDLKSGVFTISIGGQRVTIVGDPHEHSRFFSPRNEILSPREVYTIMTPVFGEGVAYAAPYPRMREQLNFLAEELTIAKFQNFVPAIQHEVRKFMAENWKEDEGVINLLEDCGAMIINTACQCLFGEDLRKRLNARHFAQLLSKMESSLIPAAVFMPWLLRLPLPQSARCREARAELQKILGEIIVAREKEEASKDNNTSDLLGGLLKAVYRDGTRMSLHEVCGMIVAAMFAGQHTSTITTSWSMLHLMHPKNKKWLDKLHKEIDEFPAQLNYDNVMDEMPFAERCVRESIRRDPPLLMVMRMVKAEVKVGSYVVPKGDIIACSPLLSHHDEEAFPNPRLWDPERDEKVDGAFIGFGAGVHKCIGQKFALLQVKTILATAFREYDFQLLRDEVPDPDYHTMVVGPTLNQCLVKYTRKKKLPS

SMILES	IC50 (Trypanosoma cruzi [1]) [µM]	IC50 (Trypanosoma cruzi [2]) [µM]	IC50 (Trypanosoma cruzi [3]) [µM]	IC50 (Trypanosoma cruzi [4]) [µM]	IC50 (Leishmania donovani [5]) [µM]	IC50 (Leishmania donovani [6]) [µM]	IC50 (Leishmania donovani [7]) [µM]	IC50 (Leishmania donovani [8]) [µM]	IC50 [9] [µM]	IC50 [10] [µM]	IC50 at 48 h [11] [µM]	IC50 (NIH3T3) [µM]	IC50 [12] [µM]
Cc1ccc2c(c1)-c1onc(C(=O)N3CCCCC3c3cccnc3)c1CO2 (stereo not given)	0.1	0.126	0.126	> 50.1	31.6	> 50.1	39.8	39.8	39.8	> 39.8	50.1	20	0.1
COc1ccc(-c2cc(C)no2)cc1S(=O)(=O)Nc1ccc(F)c(Cl)c1	1.58	3.16	3.98	50.1	25.1	25.1	20	31.6	15.8	25.1	79.4	25.1	> 100
COc1ccc(NS(=O)(=O)c2cc(-c3cc(C)n[nH]3)ccc2C)cc1OC	1.41	2	1.26	> 50.1	1	10	7.94	> 50.1	0.316	0.631	> 100	> 50.1	39.8
O=S(=O)(c1cccc(CSc2nnc(-c3ccc4c(c3)OCO4)o2)c1)N1CCOCC1	0.224	0.1	0.0398	25.1	0.501	0.794	0.251	> 50.1	31.6	> 39.8	> 100	15.8	12.6
O=C(Nc1ccc(C(=O)N2CCCC2c2ccc3c(c2)OCCCO3)cc1)c1ccco1 (stereo not given)	0.501	1	0.631	> 50.1	0.794	6.31	3.16	> 50.1	0.2	0.316	> 100	> 50.1	63.1
CC1CN(S(=O)(=O)c2ccc(NC(=O)c3cc(C4CC4)nc4c3cnn4C(C)C)cc2)CC(C)O1 (stereo not given)	0.631	0.794	0.631	> 50.1	20	> 50.1	> 50.1	10	6.31	6.31	> 100	> 50.1	> 100
O=C(NCCc1cccnc1)c1csc(-c2ccccc2)n1	0.282	0.501	0.398	> 50.1	> 50.1	> 50.1	> 50.1	> 50.1	25.1	> 39.8	> 100	50.1	0.0631
CC(=O)Nc1nc(-c2cc(C)ccc2C)c(C)s1	0.2	0.2	0.158	> 50.1	> 50.1	> 50.1	31.6	> 50.1	> 39.8	> 39.8	> 100	25.1	> 100
O=c1[nH]c(C=Cc2cccc(OCCOc3ccccc3)c2)nc(O)c1[N+](=O)[O-]	0.794	0.2	0.158	> 50.1	> 50.1	> 50.1	> 50.1	> 50.1	10	10	> 100	> 50.1	> 100
Cn1nccc1-c1cc(OC(CN)c2ccccc2)cnc1-c1ccco1 (stereo not given)	0.398	0.1	0.1	> 50.1	> 50.1	> 50.1	31.6	15.8	12.6	15.8	50.1	20	0.0631
